{
  "source": "patent US20040071650A1",
  "about": "“Use of cyclosporin 7-thioamide derivatives for hair growth” (priority 2000, published 2004)",
  "note": "“Also recorded” adds a separate entry of the source.",
  "data": [
    {"system": "C57BL/6 mice (female)", "assay": "Test of hair regrowth effects of 7-thioamide derivatives of cyclosporin on shaved backs of mice", "settings": "C57BL/6 female mice, 100 μl (0.1% w/v) applied on hair removed back once a day for 30 days; vehicle 32", "units": {"Area ratio (ratio of the area where hairs newly grew to the hair removed area)": "%"}, "procedure": "C57BL/6 mice (female), 42˜49 days old, were used in this test.\nFirst of all, mice were removed of hair on their backs using an electric shaver, and weighed. The mice were divided into several groups with weights equally distributed. After one day of adaptation, cyclosporin A and cyclosporin derivatives were applied over the hair removed area once a day per each individual for 30 days. Here, the applied amount of cyclosporin A and derivatives thereof was 100 μl (0.1% w/v). The degree of hair growth were observed by naked eye. The ratio of the area where hairs newly grew to the hair removed area were determined.", "values": [
      {"substance": "Cyclosporin A [reference compound]", "Area ratio (ratio of the area where hairs newly grew to the hair removed area)": 87},
      {"substance": "Cyclosporin C 7-thioamide ([Thr]^2-[^7ψ^8 CS—NH] cyclosporin)", "Area ratio (ratio of the area where hairs newly grew to the hair removed area)": 87},
      {"substance": "Cyclosporin D 7-thioamide ([Val]^2-[^7ψ^8 CS—NH] cyclosporin)", "Area ratio (ratio of the area where hairs newly grew to the hair removed area)": 79},
      {"substance": "Cyclosporin G 7-thioamide ([Nva]^2-[^7ψ^8 CS—NH] cyclosporin)", "Area ratio (ratio of the area where hairs newly grew to the hair removed area)": 88},
      {"substance": "Cyclosporin B 7-thioamide ([Ala]^2-[^7ψ^8 CS—NH] cyclosporin)", "Area ratio (ratio of the area where hairs newly grew to the hair removed area)": 81}
    ]},
    {"system": "C57BL/6 mice (female)", "assay": "Test of hair regrowth effects of 7-thioamide derivatives of cyclosporin on shaved backs of mice", "settings": "hair regrowth evaluation of synthesized thioamide derivatives", "values": [
      {"substance": "Cyclosporin A 7-thioamide ([^7ψ^8 CS—NH] cyclosporin A) [cyclosporin 7-thioamide]", "hair regrowth effect (in words)": "does have the hair regrowth effect; also recorded: superior hair regrowth (restoring) effect to any other compounds"},
      {"substance": "Cyclosporin A 4,7-bis(thioamide) [cyclosporin 4,7-bis(tioamide), reference compound]", "hair regrowth effect (in words)": "not all of those derivatives have hair regrowth effect, but only cyclosporin 7-thioamide"},
      {"substance": "Cyclosporin A 4-thioamide [cyclosporin 4-thioamide, reference compound]", "hair regrowth effect (in words)": "not all of those derivatives have hair regrowth effect, but only cyclosporin 7-thioamide"}
    ]},
    {"system": "mouse's back", "assay": "not given", "settings": "comparative experiments on mouse's back; cited from earlier work", "values": [
      {"substance": "Cyclosporin A [reference compound]", "hair regrowth effect relative to minoxidil": "about 100 times"}
    ]}
  ]
}
